# According to patent US11292781B2, “Pyrimidine tricyclic enone derivatives for inhibition of ROR-gamma and other uses” (REATA PHARMACEUTICALS, INC., priority 2016, dated 2022):
# Where two headings read alike, the source gives them in different places.
# Tests used:
# [1] = tested on: Nrf2 transcription factor (GST ARE luciferase reporter in AREc32 cells); test: AREc32 luciferase reporter assay; type: cell-based, human; details: EC2×: concentration required to increase GST ARE luciferase reporter activity by 2-fold, 19 hours
# From the text: A. AREc32 Luciferase Reporter Assay The AREc32 luciferase reporter assay allows for quantitative assessment of the endogenous activity of the Nrf2 transcription factor in cultured mammalian cells. AREc32 cells are derived from MCF-7 human breast carcinoma cells that were stably transfected with a reporter construct that contains the firefly luciferase gene located downstream of eight copies of the rat GSTA2 antioxidant response element (ARE) sequence (Wang et al., 2006; CXR Biosciences). Active NRF2 binds to the ARE sequences and increases expression of the firefly luciferase gene. […] Luciferase activity was determined using the ONE-Glo Luciferase assay (Promega). The luminescence signal was measured on a BMG Pherastar microplate reader. The mean luminescence value from test compound-treated wells was normalized to that from DMSO-treated wells and was represented as fold-induction. Data were analyzed using GraphPad Prism version 6.00 for Windows, GraphPad Software, La Jolla Calif. USA. A non-linear regression curve with log (agonist) vs. response using a variable slope was used to fit the data. […] EC2× values were interpolated from the curve.
# [2] = tested on: IL-17A levels in primary human CD4+ T cells differentiated into Th17 cells; test: IL-17 release from differentiated primary human T-cells (IL-17A HTRF); type: cell-based
# Procedure: C. IL-17 Release from Differentiated Primary Human T-Cells and Cell Viability Primary human cryopreserved CD4+ T Cells (Lonza, donor #0000402103) were plated in Lymphocyte Growth Medium-3 (LGM-3, Lonza) according to the manufacturer's recommendations, and allowed to recover for approximately 3 hours at 37° C. with 5% CO2 in a humidified atmosphere. […] Triplicate wells were plated for each test condition. DMSO (final concentration ≤0.1%) was used as the vehicle. Immediately after plating, CD4+ T cells were activated by adding Dynabeads Human T-Activator CD3/CD28 (Life Technologies; bead-to-cell ratio of 1:2.5) and differentiated into Th17 cells by adding a mixture of the following cytokines: transforming growth factor-β (TGF-β, 5 ng/mL), IL-6 (20 ng/mL), IL-23 (20 ng/mL), and […] (10 ng/mL). Undifferentiated control cells received only cytokine IL-2 (50 ng/mL). All human recombinant cytokines were purchased from R&D Systems. Following a 46-hour incubation at 37° C. with 5% CO2 in a humidified atmosphere, the plates were centrifuged for 3 minutes at 250×g, and half of the supernatant was transferred to a new plate to be used in the IL-17A assay (see below). Cell viability was assessed in the original plate using the CyQuant Direct Assay (Life Technologies). CyQuant values from test compound samples were normalized to those from DMSO-treated samples. The concentration of IL-17A in the supernatant was measured using the Homogeneous Time-Resolved Fluorescence (HTRF) assay (Cisbio Bioassays) according to the manufacturer's protocol. The assay was performed at room temperature in low volume, solid white 384-well plates (Greiner Bio-One). […] A non-linear regression analysis with log (inhibitor) vs. normalized response using a variable slope was applied to fit the data and determine the IC50 values for inhibition of IL-17A levels and cell viability.
# [3] = primary human CD4+ T cells, Th17 differentiation, 46-hour incubation, read-out: hIL17 IC50
"IC50 [2, 3] [nM]",SMILES,HRF2 ARE 2× [1] [nM],"IC50 ([2]; Homo sapiens, CD4+ T, 46 h, read-out: hIL17 IC50 (nM)) [nM]"
40,C[C@H]1C(=O)C(C#N)=C[C@@]2(C)c3nc(C4CCCCC4)nc(-c4ccccc4)c3CC[C@H]12 [T23],144,
200,C[C@H]1C(=O)C(C#N)=C[C@@]2(C)c3nc(-c4ccnc5ccccc45)nc(-c4ccc(C(=O)N(C)Cc5ccccc5)cc4)c3CC[C@H]12 [T101],295,
455,C[C@H]1C(=O)C(C#N)=C[C@@]2(C)c3nc(-c4ccnc5ccccc45)nc(-c4ccccc4F)c3CC[C@@H]12 [T176],>2000,
37,Cc1cc(-c2nc(-c3ccccc3F)c3c(n2)[C@]2(C)C=C(C#N)C(=O)C(C)(C)[C@H]2CC3)c2ccccc2n1 [T119],351,
36,CC1(C)C(=O)C(C#N)=C[C@@]2(C)c3nc(-c4ccnc5c(F)cccc45)nc(-c4ccccc4F)c3CC[C@H]12 [T127],343,
101,C[C@H]1C(=O)C(C#N)=C[C@@]2(C)c3nc(-c4ccnc5ccccc45)nc(C4CC4)c3CC[C@H]12 [T93],283,
20,CC(C)c1cc(-c2nc(-c3ccccc3F)c3c(n2)[C@]2(C)C=C(C#N)C(=O)[C@H](C)[C@H]2CC3)c2ccccc2n1 [T123],371,
40,COc1cc(-c2nc(-c3ccccc3)c3c(n2)[C@]2(C)C=C(C#N)C(=O)[C@H](C)[C@H]2CC3)ccn1 [T33],480,
70,C[C@H]1C(=O)C(C#N)=C[C@@]2(C)c3nc(-c4cccc5ncccc45)nc(-c4ccccc4)c3CCC[C@H]12 [T183],1868,
21,Cc1cc(-c2nc(-c3cccc(F)c3)c3c(n2)[C@]2(C)C=C(C#N)C(=O)[C@H](C)[C@H]2CC3)c2ccccc2n1 [T108],225,
65,Cc1noc(-c2nc(-c3ccnc4ccccc34)nc3c2CC[C@@H]2[C@@H](C)C(=O)C(C#N)=C[C@@]32C)n1 [T105],292,
25,C[C@]1(CCCO)C(=O)C(C#N)=C[C@@]2(C)c3nc(-c4ccnc(C5CC5)c4)nc(-c4ccccc4F)c3CC[C@H]12 [T136],518,
352,CC(C)CC[C@@]12C=C(C#N)C(=O)C[C@H]1CCc1c(-c3ccccc3F)nc(-c3ccnc4ccccc34)nc12 [T164],1059,
31,C=C(C)C[C@@]1(C)C(=O)C(C#N)=C[C@@]2(C)c3nc(-c4ccnc5ccccc45)nc(-c4ccccc4F)c3CC[C@H]12 [T166],878,
143,C[C@H]1C(=O)C(C#N)=C[C@@]2(C)c3nc(-c4ccnnc4)nc(-c4ccccc4F)c3CC[C@H]12 [T79],109,
31,C[C@H]1C(=O)C(C#N)=C[C@@]2(C)c3nc(-c4ccnc5c(F)cccc45)nc(-c4ccccc4F)c3CC[C@H]12 [T77],264,
38,C[C@H]1C(=O)C(C#N)=C[C@@]2(C)c3nc(-c4ccnc5ccccc45)nc(-c4cc5ccccc5o4)c3CC[C@H]12 [T103],277,
60,C[C@H]1C(=O)C(C#N)=C[C@@]2(C)c3nc(C4CCN(C(=O)OC(C)(C)C)CC4)nc(-c4ccccc4)c3CC[C@H]12 [T44],596,
52,CCS(=O)(=O)CCc1cc(-c2nc(-c3ccccc3F)c3c(n2)[C@]2(C)C=C(C#N)C(=O)[C@H](C)[C@H]2CC3)ccn1 [T153],282,
36,CC[C@@]1(C)C(=O)C(C#N)=C[C@@]2(C)c3nc(-c4ccnc5ccccc45)nc(-c4ccccc4F)c3CC[C@H]12 [T126],280,
36,C[C@H]1C(=O)C(C#N)=C[C@@]2(C)c3nc(-c4cccc5ncccc45)nc(-c4ccccc4F)c3CC[C@H]12 [T84],321,
39,Cc1cc(-c2nc(-c3ccccc3)c3c(n2)[C@]2(C)C=C(C#N)C(=O)[C@H](C)[C@H]2CC3)ccn1 [T43],278,

"IC50 [2, 3] [nM]",SMILES,HRF2 ARE 2× [1] [nM],"IC50 ([2]; Homo sapiens, CD4+ T, 46 h, read-out: hIL17 IC50 (nM)) [nM]"
77,C[C@H]1C(=O)C(C#N)=C[C@@]2(c3ccccc3)c3nc(-c4ccnc5ccccc45)nc(-c4ccccc4F)c3CC[C@H]12 [T148],1758,
49,C[C@H]1C(=O)C(C#N)=C[C@@]2(C)c3nc(-c4ncnc5ccccc45)nc(-c4ccccc4F)c3CC[C@H]12 [T74],507,
33,C[C@H]1C(=O)C(C#N)=C[C@@]2(C)c3nc(-c4ccnc(C5CC5)c4)nc(-c4ccccc4F)c3CC[C@H]12 [T53],380,
178,Cc1noc(C)c1-c1nc(-c2ccnc3ccccc23)nc2c1CC[C@@H]1[C@@H](C)C(=O)C(C#N)=C[C@@]21C [T100],865,
22,CC(C)c1cccc(-c2nc(-c3ccnc4ccccc34)nc3c2CC[C@@H]2[C@@H](C)C(=O)C(C#N)=C[C@@]32C)c1 [T160],418,
58,C[C@H]1C(=O)C(C#N)=C[C@@]2(C)c3nc(-c4ccnc5ccccc45)nc(OC4CCCCC4)c3CC[C@H]12 [T96],492,
69,Cc1ccc2nccc(-c3nc(-c4ccccc4F)c4c(n3)[C@]3(C)C=C(C#N)C(=O)[C@H](C)[C@H]3CC4)c2c1 [T73],407,
77,C[C@H]1C(=O)C(C#N)=C[C@@]2(C)c3nc(-c4ccncc4F)nc(-c4ccccc4F)c3CC[C@H]12 [T57],419,
67,COc1nc(-c2ccnc3ccccc23)nc2c1CC[C@@H]1[C@@H](C)C(=O)C(C#N)=C[C@@]21C [T9],510,
130,CC(=O)NCCc1cc(-c2nc(-c3ccccc3F)c3c(n2)[C@]2(C)C=C(C#N)C(=O)[C@H](C)[C@H]2CC3)ccn1 [T178],444,
39,C[C@H]1C(=O)C(C#N)=C[C@@]2(C)c3nc(-c4cccc5cccnc45)nc(-c4ccccc4F)c3CC[C@H]12 [T62],401,
94,C[C@H]1C(=O)C(C#N)=C[C@@]2(C)c3nc(-c4ccnc(CS(C)(=O)=O)c4)nc(-c4ccccc4F)c3CC[C@H]12 [T143],538,
32,CCC[C@H]1C(=O)C(C#N)=C[C@@]2(CCC)c3nc(-c4ccnc(C5CC5)c4)nc(-c4ccccc4F)c3CC[C@H]12 [T168],1239,
71,CCC[C@@]12C=C(C#N)C(=O)C[C@H]1CCc1c(-c3ccccc3F)nc(-c3ccnc(CF)c3)nc12 [T155],267,
22,CCC[C@@]1(C)C(=O)C(C#N)=C[C@@]2(C)c3nc(-c4ccnc5ccccc45)nc(-c4ccccc4F)c3CC[C@H]12 [T124],220,
,C[C@H]1C(=O)C(C#N)=C[C@@]2(C)c3nc(-c4ccnc5ccccc45)nc(OCC4CCC4)c3CC[C@H]12 [T95],430,68
38,C[C@H]1C(=O)C(C#N)=C[C@@]2(C)c3nc(C4=CCCN(C(=O)OC(C)(C)C)C4)nc(-c4ccccc4)c3CC[C@H]12 [T47],622,
35,C[C@H]1C(=O)C(C#N)=C[C@@]2(C)c3nc(-c4ccnc5ccccc45)nc(OC4CCCC4)c3CC[C@H]12 [T97],330,
86,Cc1ccc(-c2nc(-c3ccnc4ccccc34)nc3c2CC[C@@H]2[C@@H](C)C(=O)C(C#N)=C[C@@]32C)o1 [T104],293,
185,COc1nc(Nc2ccncc2)nc2c1CC[C@@H]1[C@@H](C)C(=O)C(C#N)=C[C@@]21C [T8],534,
37,C[C@H]1C(=O)C(C#N)=C[C@@]2(C)c3nc(-c4ccnc5c(F)cc(F)cc45)nc(-c4ccccc4F)c3CC[C@H]12 [T90],301,
